The values below come from patent US7834024B2, “Compositions and methods for inhibition of the JAK pathway” (Rigel Pharmaceuticals, Inc., priority 2007, dated 2010).

Where a name gives a salt, the structure may show the parent alone.

The first experiment has as its system Ramos B-Cell Line Stimulated with IL-4 (JAK-1 and JAK-3 / Stat-6, CD23). The experiment is described as follows: Assay for Ramos B-Cell Line Stimulated with IL-4 (CD23 upregulation, FACS). Format: cell-based. The note with it: Homo sapiens, Ramos, human Ramos B cells, compound 1 hour, IL-4 50 units/mL for 20-24 hours, anti-CD23-PE FACS; read-out: Example 2 (IC50). The text has this: One means of assaying for such inhibition is detection of the effect of the 2,4-pyrimidinediamine compounds on the upregulation of downstream gene products. In the Ramos/IL4 assay, B-cells are stimulated with the cytokine Interleukin-4 (IL-4) leading to the activation of the JAK/Stat pathway through phosphorylation of the JAK family kinases, JAK1 and JAK3, which in turn phosphorylate and activate the transcription factor Stat-6. […] To study the effect of inhibitors (e.g., the 2,4-substituted pyrimindinediamine compounds described herein) on the JAK1 and JAK3 kinases, human Ramos B cells are stimulated with human IL-4. 20 to 24 hours post stimulation, cells are stained for upregulation of CD23 and analyzed using flow cytometry (FACS).
B-cells stimulated with cytokine Interleukin-4 (IL-4) activate the JAK/Stat pathway through phosphorylation of the JAK family kinases, JAK-1 and JAK-3, which in turn phosphorylate and activate the transcription factor Stat-6. […] To study the effect of inhibitors on the JAK family kinases, human Ramos B cells were stimulated with human IL-4.
Cells were maintained at a density of 3.5×10^5. The day before the experiment, Ramos B-cells were diluted to 3.5×10^5 cells/mL to ensure that they were in a logarithmic growth phase.
Cells were spun down and suspended in RPMI with 5% serum. 5×10^4 cells were used per point in a 96-well tissue culture plate. Cells were pre-incubated with compound or DMSO (Sigma-Aldrich, St. Louis, Mo., Cat No. D2650) vehicle control for 1 hour in a 37° C. incubator. Cells were then stimulated with IL-4 (Peprotech Inc., Rocky Hill, N.J., Cat No. 200-04) for a final concentration of 50 units/mL for 20-24 hours. […] Detection was performed using a BD LSR I System Flow Cytometer, purchased from Becton Dickinson Biosciences of San Jose, Calif.
As to `COc1ccc(Nc2nc(Nc3ccc(C(=O)Nc4ccn(C)n4)cc3)ncc2F)cc1Cl` [Compound I-2, N4-(3-Chloro-4-methoxyphenyl)-5-fluoro-N2-[4-((1-methyl-1H-pyrazol-3-yl)aminocarbonyl)phenyl]-2,4-pyrimidinediamine], the IC50 is 317 nM.

For the compound `COc1ccc(Nc2nc(Nc3ccc(C(=O)Nc4ccnn4C)cc3)ncc2F)cc1Cl` [Compound I-4, N4-(3-Chloro-4-methoxyphenyl)-5-fluoro-N2-[4-((1-methyl-1H-pyrazol-5-yl)aminocarbonyl)phenyl]-2,4-pyrimidinediamine], the IC50 was 57.5 nM.

For `C#CCOc1ccc(Nc2nc(Nc3cccc(C(N)=S)c3)ncc2F)cc1` [Compound I-5, N2-(3-Aminocarbonothioylphenyl)-5-fluoro-N4-[4-(2-propynyloxy)phenyl]-2,4-pyrimidinediamine], the IC50 is 1150 nM.

For the compound `C#CCOc1ccc(Nc2nc(Nc3cccc(C(N)=O)c3)ncc2F)cc1` [Compound I-6, N2-(3-Aminocarbonylphenyl)-5-fluoro-N4-[4-(2-propynyloxy)phenyl]-2,4-pyrimidinediamine], the IC50 was determined as 2770 nM.

With `C#CCOc1ccc(Nc2nc(Nc3ccc(C(N)=S)cc3)ncc2F)cc1` [Compound I-7, N2-(4-Aminocarbonothioylphenyl)-5-fluoro-N4-[4-(2-propynyloxy)phenyl]-2,4-pyrimidinediamine], the IC50 came to 223 nM.

For the compound `C#CCOc1ccc(Nc2nc(Nc3ccc(C(N)=O)cc3)ncc2F)cc1` [Compound I-8, N2-(4-Aminocarbonylphenyl)-5-fluoro-N4-[4-(2-propynyloxy)phenyl]-2,4-pyrimidinediamine], the half-inhibitory concentration (IC50) is 118 nM.

Take `Cc1cc(Nc2nc(Nc3ccc(C(N)=O)c(Cl)c3)ncc2F)ccc1N1CCN(C)CC1` [Compound I-11, N2-(4-Aminocarbonyl-3-chlorophenyl)-5-fluoro-N4-[3-methyl-4-(4-methylpiperazin-1-yl)phenyl]-2,4-pyrimidinediamine]: the IC50 is 56.3 nM.

Consider `NC(=O)c1ccc(Nc2ncc(F)c(Nc3cccc(-c4ncco4)c3)n2)cc1` [Compound I-13, N2-(4-Aminocarbonylphenyl)-5-fluoro-N4-[3-(oxazol-2-yl)phenyl]-2,4-pyrimidinediamine], for which the IC50 came to 752 nM.

With `NC(=O)c1ccc(Nc2ncc(F)c(Nc3cccc(-c4ncco4)c3)n2)cc1Cl` [Compound I-14, N2-(4-Aminocarbonyl-3-chlorophenyl)-5-fluoro-N4-[3-(oxazol-2-yl)phenyl]-2,4-pyrimidinediamine], the IC50 is 178 nM.

With `COc1ccc(Nc2nc(Nc3cccc(C#N)c3)ncc2F)cc1Cl` [Compound I-18, N4-(3-Chloro-4-methoxyphenyl)-N2-(3-cyanophenyl)-5-fluoro-2,4-pyrimidinediamine], the IC50 was found to be 266 nM.

`N#Cc1cccc(Nc2ncc(F)c(Nc3ccc(OCC(N)=O)cc3)n2)c1` [Compound I-22, N4-(4-Aminocarbonylmethoxyphenyl)-N2-(3-cyanophenyl)-5-fluoro-2,4-pyrimidinediamine]: the IC50 worked out at 886 nM.

On to `NC(=O)COc1ccc(Nc2nc(Nc3cccc(C(N)=O)c3)ncc2F)cc1` [Compound I-23, N4-(4-Aminocarbonylmethoxyphenyl)-N2-(3-aminocarbonylphenyl)-5-fluoro-2,4-pyrimidinediamine], for which the IC50 amounted to 3070 nM.

For the compound `N#Cc1ccc(Nc2ncc(F)c(Nc3ccc(OCC(N)=O)cc3)n2)cc1` [Compound I-24, N4-(4-Aminocarbonylmethoxyphenyl)-N2-(4-cyanophenyl)-5-fluoro-2,4-pyrimidinediamine], the IC50 worked out at 245 nM.

For the compound `NC(=O)COc1ccc(Nc2nc(Nc3ccc(C(N)=O)cc3)ncc2F)cc1` [Compound I-25, N4-(4-Aminocarbonylmethoxyphenyl)-N2-(4-aminocarbonylphenyl)-5-fluoro-2,4-pyrimidinediamine], the IC50 turned out to be 420 nM.

For `CC(C)OC(=O)COc1ccc(Nc2nc(Nc3ccc(C(=O)N4CCN(C)CC4)cc3)ncc2F)cc1` [Compound I-26, 5-Fluoro-N4-[4-((1-methylethoxy)carbonylmethoxy)phenyl]-N2-[4-((4-methylpiperazin-1-yl)carbonyl)phenyl]-2,4-pyrimidinediamine], the concentration for half-maximal inhibition (IC50) was determined as 1830 nM.

Take `N#CCOc1ccc(Nc2nc(Nc3ccc(C(N)=O)cc3)ncc2F)cc1` [Compound I-27, N2-(4-Aminocarbonylphenyl)-N4-(4-cyanomethoxyphenyl)-5-fluoro-2,4-pyrimidinediamine]: the IC50 amounted to 5.21 nM.

For the compound `N#CCOc1ccc(Nc2nc(Nc3cccc(C(N)=O)c3)ncc2F)cc1` [Compound I-28, N2-(3-Aminocarbonylphenyl)-N4-(4-cyanomethoxyphenyl)-5-fluoro-2,4-pyrimidinediamine], the IC50 came out at 65.1 nM.

The same experiment, now with this note: human Ramos B cells, compound 1 hour, IL-4 50 units/mL for 20-24 hours, anti-CD23-PE FACS; read-out: Example 2 (IC50).
As for “5-Fluoro-N2-[2-(2-(N-morpholinyl)ethylaminocarbonyl)benzofuran-5-yl]-N4-[4-(2-propynyloxy)phenyl]-2,4-pyrimidinediamine [III-3]”, the IC50 was determined as 149 nM.

With `CNC(=O)COc1cccc(Nc2ncc(F)c(Nc3ccc4c(c3)N(Cc3ccc(OC)cc3)C(=O)C(C)S4)n2)c1` (racemic) [II-13, Racemic-5-fluoro-N2-[3-(N-methylaminocarbonylmethyleneoxy)phenyl]-N4-[2-methyl-3-oxo-4-(4-methoxybenzyl)-2H-benzo[1,4]thiazin-6-yl]-2,4-pyrimidinediamine], the IC50 was found to be 938 nM.

`CNC(=O)COc1cccc(Nc2ncc(Br)c(Nc3ccc(OC)c(Cl)c3)n2)c1` [Compound I-1, 5-Bromo-N4-(3-chloro-4-methoxyphenyl)-N2-[3-(N-methylaminocarbonylmethyleneoxy)phenyl]-2,4-pyrimidinediamine]: the IC50 was found to be 123 nM.

With `CCn1nccc1NC(=O)c1ccc(Nc2ncc(F)c(Nc3ccc(OC)c(Cl)c3)n2)cc1` [Compound I-3, N4-(3-Chloro-4-methoxyphenyl)-N2-[4-((I-ethyl-1H-pyrazol-5-yl)aminocarbonyl)phenyl]-5-fluoro-2,4-pyrimidinediamine], the IC50 stood at 119 nM.

Take `Cc1noc(COc2ccc(Nc3nc(Nc4ccc(C(N)=O)cc4)ncc3F)cc2)n1` [Compound I-10, N2-(4-Aminocarbonylphenyl)-5-fluoro-N4-[4-((3-methyl-1,2,4-oxadiazol-5-yl)methyleneoxy)phenyl]-2,4-pyrimidinediamine Hydrogen Chloride Salt]: the IC50 came out at 4.85 nM.

Regarding `Cc1noc(COc2ccc(N(C)c3nc(Nc4ccc(C(N)=O)cc4)ncc3F)cc2)n1` [Compound I-15, N2-(4-Aminocarbonylphenyl)-5-fluoro-N4-methyl-N4-[4-((3-methyl-1,2,4-oxadiazol-5-yl)methyleneoxy)phenyl]-2,4-pyrimidinediamine], the IC50 was 693 nM.

For the compound `Cc1noc(COc2ccc(N(C)c3nc(Nc4ccc(C(N)=O)c(Cl)c4)ncc3F)cc2)n1` [Compound I-16, N2-(4-Aminocarbonyl-3-chlorophenyl)-5-fluoro-N4-methyl-N4-[4-((3-methyl-1,2,4-oxadiazol-5-yl)methyleneoxy)phenyl]-2,4-pyrimidinediamine], the IC50 worked out at 909 nM.

As for `Cc1noc(COc2ccc(N(C)c3nc(Nc4cccc(C#N)c4)ncc3F)cc2)n1` [Compound I-17, N2-(3-Cyanophenyl)-5-fluoro-N4-methyl-N4-[4-((3-methyl-1,2,4-oxadiazol-5-yl)methyleneoxy)phenyl]-2,4-pyrimidinediamine], the IC50 was determined as 1780 nM.

A word on the IC50: it is the concentration that inhibits the measured activity by half.
